Tests used:
[1] = Hydrodynamic range by quasi-elastic or static light diffusion (SLD); assay type: physicochemical
Method: (§1) In order to find the characteristic dimension of the GLDs in solution, the hydrodynamic ranges were determined from the molecular diffusion coefficients by using the Stoke-Einstein ratio:
(§2) where η is the viscosity of the medium, k the Boltzmann constant and T the temperature in K. In order to determine Dm, two experimental methods were used: quasi-elastic or static light diffusion (SLD) (coupled or not coupled with SEC), and the Taylor diffusion method (TDA). This latter method makes it possible to measure the diffusion coefficient of a species from the widening of a solute band under the influence of a hydrodynamic flow the speed profile of which is known to be dispersive (parabolic Poiseuille profile).
(§3) The TDA measurements were carried out using a capillary electrophoresis appliance, using silica capillaries of 50 μm i.d. (60 cm×50 cm up to the detector) the internal surface of which was previously modified by grafting a polycation (poly(diallyl-dimethyl-ammonium)) in order to limit the adsorption of the GLD solutes on the surface of the capillary. Dispersion of the solute band under the influence of the Poiseuille flow was measured using a UV spectrophotometer. The diffusion coefficient was then determined according to the method originally described by Taylor, then repeated by Bello et al.. In parallel to the TDA method, measurements were carried out by SLD, using a zetasizer (Malvern) device. Finally, it was also possible to obtain Rh measurements from the 3D-SEC (Viscotek). All of the numerical data for Rh is shown together in Table 3.

[2] = Hydrodynamic range by Taylor diffusion analysis (TDA); assay type: physicochemical
Method: as §1, §2, §3

[3] = Buffer 1 (H2PO4−Na+ 50 g/L, pH 4.5)
[4] = Buffer 2 (Buffer 1 + 3% acetonitrile)
[5] = Buffer 3 (physiological buffer, pH 7.0)

linear poly-L-Lysine [P1]
Rh (nm) hydrodynamic range [1, 3]: 1.18 nm | Rh (nm) hydrodynamic range [1, 4]: 1.1 nm | Rh (nm) hydrodynamic range [1, 5]: 1.01 nm | Rh (nm) hydrodynamic range [2, 3]: 1.1 nm | Rh (nm) hydrodynamic range [2, 4]: 0.95 nm | Rh (nm) hydrodynamic range [2, 5]: 0.74 nm

Reference: patent US20080206183A1, “Method of Preparing Grafted Polylysine Dendrimers” (Central national De La Recherche Scientifique, priority 2005, published 2008)
